What was measured:
[1] = biological target: T1, bovine serum amine oxidase (BSAO) (Bos taurus, UniProt Q29437); assay: spectrophotometric benzaldehyde formation at […] nm; type: biochemical; parameters: BSAO purified from bovine blood; also decomplemented FBS
T1 sequence (Q29437 17-762): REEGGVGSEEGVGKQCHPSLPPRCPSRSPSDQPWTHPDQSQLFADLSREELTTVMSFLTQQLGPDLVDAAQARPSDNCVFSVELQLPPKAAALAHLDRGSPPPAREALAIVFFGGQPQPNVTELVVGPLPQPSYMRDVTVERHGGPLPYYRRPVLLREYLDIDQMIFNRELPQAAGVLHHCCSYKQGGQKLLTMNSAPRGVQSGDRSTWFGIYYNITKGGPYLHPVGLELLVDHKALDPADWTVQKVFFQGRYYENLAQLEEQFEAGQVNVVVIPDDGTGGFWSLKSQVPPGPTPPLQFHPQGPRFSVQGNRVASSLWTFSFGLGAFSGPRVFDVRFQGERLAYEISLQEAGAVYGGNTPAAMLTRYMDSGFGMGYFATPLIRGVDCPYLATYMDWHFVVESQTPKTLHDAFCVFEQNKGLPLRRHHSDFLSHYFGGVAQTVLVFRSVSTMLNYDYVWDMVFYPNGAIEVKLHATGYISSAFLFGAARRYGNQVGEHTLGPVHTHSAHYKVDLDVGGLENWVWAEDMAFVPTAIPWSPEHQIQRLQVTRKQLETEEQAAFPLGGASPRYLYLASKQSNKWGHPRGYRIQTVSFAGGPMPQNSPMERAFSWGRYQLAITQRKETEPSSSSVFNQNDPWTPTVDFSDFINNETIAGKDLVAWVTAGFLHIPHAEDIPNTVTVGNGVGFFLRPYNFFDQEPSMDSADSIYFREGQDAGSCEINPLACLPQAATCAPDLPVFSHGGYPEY

[2] = biological target: T1, bovine serum amine oxidase (BSAO); assay: DCHBS/AAP peroxide-coupled kinetic assay with spermidine as substrate, Morrison tight-binding fit; type: biochemical; parameters: BSAO purified from bovine blood

SMILES	spectrophotometric benzaldehyde formation at 250 nm [1]	Ki [2] [nM]
NCc1ccccc1 [benzylamine]	BSAO and decomplemented FBS activities were determined spectrophotometrically as the amount of benzaldehyde formed per min (μmol/min) from benzylamine	–
N=C(N)NCCCCCCCN [GC7]	–	308

Source: publication PMC12802350, “Opposite effects of spermidine and GC7 in cell culture are dictated by distinct molecular targets” (Biochemical Journal, 2025)
